Reference: ChEMBL document CHEMBL5620383, “Advances in CD73 inhibitors for immunotherapy: Antibodies, synthetic small molecule compounds, and natural compounds” (Eur J Med Chem, 2023)

Columns and labels:
[1] = species on record: Homo sapiens; assay: Inhibition of adenosine transporter (unknown origin) at 20 uM relative to control
[2] = tested on: 4T1; assay: Inhibition of cell migration in mouse 4T1 cells at 10 uM incubated for 48 hrs by Transwell assay; type: functional; set-up: scale not given: the % may be the effect or the level left
[3] = tested on: MDA-MB-231; assay: Inhibition of cell migration in human MDA-MB-231 cells at 10 uM incubated for 48 hrs by Transwell assay; type: functional; set-up: scale not given: the % may be the effect or the level left
[4] = target: T1, 5'-nucleotidase (Homo sapiens, UniProt P21589); assay: Inhibition of CD73 (unknown origin)
[5] = tested on: MDA-MB-231; assay: Cytotoxicity against human MDA-MB-231 cells assessed as reduction in cell growth at 20 uM incubated for 48 hrs by CCK-8 assay relative to control; type: functional; set-up: scale not given: the % may be the effect or the level left
[6] = target: T1, 5'-nucleotidase; assay: Inhibition of C-terminal 6His-tagged human recombinant CD73 expressed in CHO cells incubated for 1 hr by malachite green based spectrophotometer assay; type: cell-based
[7] = target: T1, 5'-nucleotidase; assay: Binding affinity to human recombinant CD73 expressed in Sf9 cells assessed as inhibition constant by malachite green based spectrophotometer assay
[8] = target: T1, 5'-nucleotidase; assay: Inhibition of CD73 (unknown origin) at 20 uM relative to control
[9] = target: T1, 5'-nucleotidase; assay: Binding affinity to CD73 (unknown origin) assessed as inhibition constant
[10] = Reversal of adenosine induced reduction in IFNgamma production in human PBMC cells; type: functional, cell-based
[11] = target: T1, 5'-nucleotidase; assay: Inhibition of human recombinant CD73 (27 to 549 residues) expressed in Sf9 cells
[12] = target: T1, 5'-nucleotidase; assay: Binding affinity to human recombinant CD73 assessed as inhibition constant
[13] = target: T1, 5'-nucleotidase; assay: Inhibition of human CD73 expressed in A-375 cells incubated for 15 mins by malachite green based spectrophotometer assay; type: cell-based

T1 sequence (P21589 whole entry): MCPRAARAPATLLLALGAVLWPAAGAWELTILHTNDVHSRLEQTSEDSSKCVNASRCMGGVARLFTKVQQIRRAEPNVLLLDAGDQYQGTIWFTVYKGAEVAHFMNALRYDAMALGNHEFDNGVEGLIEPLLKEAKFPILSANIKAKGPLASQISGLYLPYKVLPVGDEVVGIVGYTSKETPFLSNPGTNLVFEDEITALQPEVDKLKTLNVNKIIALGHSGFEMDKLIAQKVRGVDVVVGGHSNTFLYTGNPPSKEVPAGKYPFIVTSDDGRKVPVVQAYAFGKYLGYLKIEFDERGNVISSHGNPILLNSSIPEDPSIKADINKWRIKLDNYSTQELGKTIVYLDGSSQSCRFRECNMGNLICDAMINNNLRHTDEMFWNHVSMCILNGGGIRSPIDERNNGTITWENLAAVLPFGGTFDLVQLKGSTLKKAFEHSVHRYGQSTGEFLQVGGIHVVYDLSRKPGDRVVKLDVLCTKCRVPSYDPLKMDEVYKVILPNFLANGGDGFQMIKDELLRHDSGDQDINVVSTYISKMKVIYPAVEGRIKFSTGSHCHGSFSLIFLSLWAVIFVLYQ

C=C[C@]1(C)C[C@@H](OC(=O)CSCCN(CC)CC)[C@]2(C)[C@H](C)CC[C@]3(CCC(=O)[C@H]32)[C@@H](C)[C@@H]1O [TIAMULIN]
inhibition [1]: 85.7% | Activity [2]: 67.01% | Activity [3]: 76.2%

C=C(C)[C@@H]1CC[C@]2(C(=O)O)CC[C@]3(C)[C@H](CC[C@@H]4[C@@]5(C)CC[C@H](OC(=O)c6ccc(F)c(F)c6)C(C)(C)[C@@H]5CC[C@]43C)[C@@H]12
IC50 [4]: 740 nM | Activity [5]: 87.59%

COC[C@](CO)(OC[C@H]1O[C@@H](n2ncc3c(NC4CCCC4)nc(Cl)nc32)[C@H](O)[C@@H]1O)P(=O)(O)O
IC50 [6]: 250 nM

Nc1ncnc2c1ncn2COCCOP(=O)(O)CP(=O)(O)O
Ki [7]: 12600 nM

C=C[C@]1(C)C[C@@H](OC(=O)CO)[C@]2(C)[C@H](C)CC[C@]3(CCC(=O)[C@H]32)[C@@H](C)[C@@H]1O
inhibition [8]: 70%

C=C(C)[C@@H]1CC[C@]2(C(=O)O)CC[C@]3(C)[C@H](CC[C@@H]4[C@@]5(C)CC[C@H](OC(=O)c6c(F)c(F)c(F)c(F)c6F)C(C)(C)[C@@H]5CC[C@]43C)[C@@H]12
IC50 [4]: 470 nM

C=C(C)[C@@H]1CC[C@]2(C(=O)O)CC[C@]3(C)[C@H](CC[C@@H]4[C@@]5(C)CC[C@H](O)C(C)(C)[C@@H]5CC[C@]43C)[C@@H]12 [BETULINIC ACID]
Ki [9]: 7800 nM

O=P(O)(O)COC[C@H]1O[C@@H](n2ncc3c(N4CC5(CCc6ccccc65)C4)nc(Cl)nc32)[C@H](O)[C@@H]1O
IC50 [6]: 50 nM | EC50 [10]: 110 nM

O=P(O)(O)CP(=O)(O)CC(O)[C@H]1O[C@@H](n2ccnn2)[C@H](O)[C@@H]1O (stereo not given in full)
IC50 [11]: 860 nM | IC50 [6]: 860 nM

C=C(C)[C@@H]1CC[C@]2(C(=O)O)CC[C@]3(C)[C@H](CC[C@@H]4[C@@]5(C)CC[C@H](OC(=O)c6ccc(F)cc6)C(C)(C)[C@@H]5CC[C@]43C)[C@@H]12
IC50 [4]: 560 nM

CN(Cc1ccccc1F)c1nc(Cl)nc2c1ncn2[C@@H]1O[C@H](COP(=O)(O)OP(=O)(O)O)[C@@H](O)[C@H]1O
Ki [12]: 0.318 nM

Cn1c(=O)n([C@@H]2O[C@H](COP(=O)(O)OP(=O)(O)O)[C@@H](O)[C@H]2O)cc/c1=N/Oc1ccccc1
Ki [7]: 10.1 nM

CCN(CC)c1nc(Cl)nc2c1ncn2[C@@H]1O[C@H](COCP(=O)(O)OP(=O)(O)C(Br)(Br)P(=O)(O)O)[C@@H](O)[C@H]1O
Ki [7]: 451 nM

Nc1ncnc2c1ncn2[C@@H]1O[C@H](COP(=O)(O)OP(=O)(O)O)[C@@H](O)[C@H]1O [ADENOSINE DIPHOSPHATE]
Ki [12]: 88.4 nM | IC50 [13]: 3.8 nM
